# According to patent US20250367171A1, “THERAPEUTIC OR PROPHYLACTIC AGENT FOR PERIPHERAL NEUROPATHIES” (Toray Industries, Inc., priority 2017, published 2025):
# Assays:
# [1] = test system: rat experimental autoimmune neuritis (EAN) model; assay: Rat experimental autoimmune neuritis (EAN) model: clinical scores, body weight, histopathology; assay type: in vivo
# Experimental: A method of preparing EAN model rats is as described below. Peripheral myelin protein P2 peptide 57-81 (synthesized at Toray Research Center, Inc.) was dissolved in physiological saline (Otsuka Pharmaceutical Factory, Inc.) to prepare a 2 mg/mL solution. The solution and 2 mg/mL complete Freund's adjuvant (Difco Laboratories) containing killed Mycobacterium tuberculosis H37Ra were mixed in equal amounts, thereby preparing an emulsion which was a peptide solution for administration. The peptide solution for administration (200 μL) was administered subcutaneously to the base of the tail of each Lewis rat (6 to 7 weeks old, male; CHARLES RIVER LABORATORIES JAPAN, INC.) under anesthesia, thereby preparing the EAN model. The day of administration of the peptide was designated as day 0 after induction of pathological conditions.
# Clinical scores were evaluated as follows: 0=no symptom, 1=limp tail or hind limb weakness, 2=limp tail and hind limb weakness, 3=partial hind limb paralysis, 4=complete hind limb paralysis, 5=moribund state or death. Weighing was also performed.
# Compound 1 (20 mg/kg) was dissolved in distilled water (Otsuka Pharmaceutical Factory, Inc.) and then the solution was orally administered to the EAN model twice a day (administration was started on day 10 after induction of pathological conditions). As a control, distilled water was orally administered to the EAN model. Groups were composed of 2 groups: a solvent administration group (vehicle group); and a compound 1 administration group.
# For histopathological evaluation, on day 17 after induction of pathological conditions, the sciatic nerve and the tibial nerve were isolated, and then immersed in a 10% formalin neutral buffer solution. Specimens were sliced and then subjected to hematoxylin-eogin staining, Kliiver-Barrera staining (double staining of Luxol Fast Blue staining and Nissl staining) and immunostaining (IbaI, CD3, NFP and MBP). Specimens were observed under an optical microscope, and then the presence or the absence of T cell and macrophage infiltration, and degeneration of myelin sheaths and axons were evaluated.
# [2] = test system: rat oxaliplatin-induced peripheral neuropathy model; assay: Cold allodynia (cold plate test) in rat oxaliplatin-induced peripheral neuropathy model; assay type: in vivo; settings: 10 mg/kg oral twice a day, day 12 after induction, vs vehicle group
# Experimental: Oxaliplatin (4 mg/kg, Elplat I.V. infusion solution […]; Yakult) was administered to SD rats (7 weeks old, male; CHARLES RIVER LABORATORIES JAPAN, INC.) in a cycle of 1 week (intraperitoneally administered twice, two consecutive days per week) for 2 or 3 weeks, thereby preparing an oxaliplatin-induced peripheral neuropathy model. As a control (pseudo-induction), a 5% glucose solution (Otsuka Pharmaceutical Factory, Inc.) was administered. The initial day of administration was designated as day 0 after induction of pathological conditions.
# A solution containing compound 1 (3 or 10 mg/kg) or a solvent thereof (water for injection; Otsuka Pharmaceutical Factory, Inc.) was orally administered everyday (twice a day) (2nd administration was performed 8 hours after the 1st administration) to rats from day 0 after induction of pathological conditions for 18 days. […]
# The beneficial effects on cold allodynia were evaluated before induction of pathological conditions and on day 12 after induction of pathological conditions (before the 1st administration of compound 1). Beneficial effects on cool allodynia were evaluated by cold plate test. […] An animal was placed on a plate kept at a predetermined temperature (8° C.), and then the withdrawal latency required until pain-related behaviors (hind paw lifting, hind paw shaking, hind paw licking, standing, or jumping) were confirmed was measured. […]
# [3] = test system: myelin basic protein (MBP) in co-culture of rat dorsal root ganglion neurons and Schwann cells; assay: Expression level of MBP in co-culture, Western blotting; assay type: cell-based; settings: 30 μM, day 43 of culture, vs vehicle treatment group
# Experimental: In a manner similar to Example 3, co-culture of rat dorsal root ganglion neurons and Schwann cells was prepared, myelination was induced, and then treatment with compound 1 was performed. Groups were composed of 2 groups: a sterile distilled water treatment group (Vehicle treatment group); and a 30 μM compound 1 treatment group (compound 1 treatment group).
# For Western blotting, on day 43 from the initial day of cell culture, the co-culture was lysed in a RIPA cell lysis solution, and then the cell lysate was subjected to sodium dodecyl sulfate-polyacrylamide gel electrophoresis. Subsequently, the protein was transferred to a PVDF membrane, and then an MBP band was detected by antibody reaction. Image Lab software (BIO-RAD) was used for quantifying the thus detected band.
# [4] = test system: rat bortezomib-induced peripheral neuropathy model; assay: Mechanical allodynia (von Frey test) in rat bortezomib-induced peripheral neuropathy model; assay type: in vivo; settings: 20 mg/kg oral single dose, day 15, 3 hours after administration, vs vehicle group
# Experimental: Bortezomib (0.2 mg/kg, AdooQ BioScience) was intraperitoneally administered 4 times in total to SD rats (6 weeks old, male; CHARLES RIVER LABORATORIES JAPAN, INC.) on days 1, 4, 8 and 11 after induction of pathological conditions, thereby preparing a bortezomib-induced peripheral neuropathy model. Here, the initial day of administration was designated as the 1st day (Day1) after induction of pathological conditions. Bortezomib was dissolved in dimethyl sulfoxide, and then Tween80 was added. Subsequently, water for injection was added to prepare a 0.2 mg/mL solution. The final concentration of dimethyl sulfoxide and that of Tween80 were each 5%.
# On day 15 after induction of pathological conditions, a solution containing compound 1 (20 mg/kg) or a solvent thereof (water for injection) was orally administered to rats. Groups were composed of 2 groups: a solvent administration group (vehicle group) and a compound 1 (20 mg/kg) administration group.
# Beneficial effects on mechanical allodynia were evaluated in a manner similar to Example 5, and this evaluation was performed before and on day 15 after induction of pathological conditions (3 hours after administration of compound 1).
# [5] = 20 mg/kg oral twice a day, day 17, n = 3
structure (smiles),measurement,setting,value
"CN(C)C1CCN(C(=O)C[C@H](O)c2nccn2C)CC1 [Compound 1, (S)-1-(4-(dimethylamino)piperidin-1-yl)-3-hydroxy-3-(1-methyl-1H-imidazol-2-yl)propan-1-one]",body weight loss,[1]; 20 mg/kg oral twice a day from day 10 after induction,no body weight loss was induced
same,clinical scores,"[1]; 20 mg/kg oral twice a day from day 10 after induction, vs vehicle group",Increases in clinical scores were suppressed
same,"number of animals with T cell infiltration, sciatic nerve",[1]; [5],1/3
same,"number of animals with T cell infiltration, tibial nerve",[1]; [5],0/3
same,"number of animals with axonal degeneration, sciatic nerve",[1]; [5],0/3
same,"number of animals with axonal degeneration, tibial nerve",[1]; [5],0/3
same,"number of animals with macrophage infiltration, sciatic nerve",[1]; [5],1/3
same,"number of animals with macrophage infiltration, tibial nerve",[1]; [5],0/3
same,"number of animals with myelin sheath degeneration, sciatic nerve",[1]; [5],0/3
same,"number of animals with myelin sheath degeneration, tibial nerve",[1]; [5],0/3
same,withdrawal latency in cold plate test (cold allodynia),[2],significantly prolonged withdrawal latency
same,myelin sheath marker protein MBP expression level,[3],"increases in the myelin sheath marker protein, MBP"
same,50% response threshold in von Frey test (mechanical allodynia),[4],significant increase in 50% response threshold
